Measurements published in patent US10844077B2, “Thiazolyl-containing compounds for treating proliferative diseases” (Dana-Farber Cancer Institute, Inc., priority 2014, dated 2020).
Values joined by “and” are separate entries in the source; they are usually repeats but may differ in a detail not shown here. Equal entries are not always repeated. Where two headings read alike, the source gives them in different places.

Tests used:
PRPK = PRPK (Homo sapiens (Human), UniProt Q96S44)
Description: (§1) The cells were harvested and lysed. The lysates were directly labeled with an ATP-biotin probe. Bound kinases were identified and quantitated by ACTIVX as described in Patricelli et al., Biochemistry, 2007, 46(2): 350-358. The compounds were tested in duplicates against duplicate or quadruplicate control samples.

PCTAIRE2 = PCTAIRE2 (Homo sapiens (Human), UniProt Q00537)
Description: as §1

MAPKAPK3 = MAPKAPK3 (Homo sapiens (Human), UniProt Q16644)
Description: as §1

PCTAIRE1 = PCTAIRE1 (Homo sapiens (Human), UniProt Q00536)
Description: as §1

PRP4 = PRP4 (Homo sapiens (Human), UniProt Q13523)
Description: as §1

PCTAIRE1, PCTAIRE3 = test: KINATIV assay; type: cell-based; settings: 1 μM, 90 minutes, BCWM.1 cells
Text: (§2) The cells were harvested and lysed.

PCTAIRE2, PCTAIRE3 = test: KINATIV assay; type: cell-based; settings: 1 μM, 90 minutes, BCWM.1 cells
Text: as §2

STLK5 = STLK5 (Homo sapiens (Human), UniProt Q7RTN6); test: KINATIV assay; type: cell-based; settings: 1 μM, 90 minutes, BCWM.1 cells
Procedure, shortened: (§3)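 Lysed cells serve as the kinase source; labeling uses an ATP-biotin probe added directly to lysate. ACTIVX then identifies and measures the captured kinases, with compound samples in duplicate against duplicate or quadruplicate controls.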

MARK2 = MARK2 (Homo sapiens (Human), UniProt Q7KZI7); test: KINATIV assay; type: cell-based; settings: 1 μM, 90 minutes, BCWM.1 cells
Procedure, shortened: as §3

JAK1 = JAK1 (Homo sapiens (Human), UniProt P23458); test: KINATIV assay; type: cell-based; settings: 1 μM, 90 minutes, BCWM.1 cells
Procedure, shortened: as §3

ROCK1 = ROCK1 (Homo sapiens (Human), UniProt Q13464); test: KINATIV assay; type: cell-based; settings: 1 μM, 90 minutes, BCWM.1 cells
Procedure, shortened: as §3

MARK3, MARK4 = test: KINATIV assay; type: cell-based; settings: 1 μM, 90 minutes, BCWM.1 cells
Procedure, shortened: as §3

CHK1 = CHK1 (Homo sapiens (Human), UniProt O14757); test: KINATIV assay; type: cell-based; settings: 1 μM, 90 minutes, BCWM.1 cells
Procedure, shortened: as §3

FYN, SRC, YES = test: KINATIV assay; type: cell-based; settings: 1 μM, 90 minutes, BCWM.1 cells
Procedure, shortened: as §3

KHS1 = KHS1 (Homo sapiens (Human), UniProt Q9Y4K4); test: KINATIV assay; type: cell-based; settings: 1 μM, 90 minutes, BCWM.1 cells
Procedure, shortened: as §3

GSK3A = GSK3A (Homo sapiens (Human), UniProt P49840); test: KINATIV assay; type: cell-based; settings: 1 μM, 90 minutes, BCWM.1 cells
Procedure, shortened: as §3

RSK1, RSK2, RSK3 domain1 = test: KINATIV assay; type: cell-based; settings: 1 μM, 90 minutes, BCWM.1 cells
Procedure, shortened: as §3

CDK9 = CDK9 (Homo sapiens (Human), UniProt P50750); test: KINATIV assay; type: cell-based; settings: 1 μM, 90 minutes, BCWM.1 cells
Procedure, shortened: as §3

GCN2 = GCN2 (Homo sapiens (Human), UniProt Q9P2K8); test: KINATIV assay; type: cell-based; settings: 1 μM, 90 minutes, BCWM.1 cells
Sequence of GCN2 (Q9P2K8 whole entry): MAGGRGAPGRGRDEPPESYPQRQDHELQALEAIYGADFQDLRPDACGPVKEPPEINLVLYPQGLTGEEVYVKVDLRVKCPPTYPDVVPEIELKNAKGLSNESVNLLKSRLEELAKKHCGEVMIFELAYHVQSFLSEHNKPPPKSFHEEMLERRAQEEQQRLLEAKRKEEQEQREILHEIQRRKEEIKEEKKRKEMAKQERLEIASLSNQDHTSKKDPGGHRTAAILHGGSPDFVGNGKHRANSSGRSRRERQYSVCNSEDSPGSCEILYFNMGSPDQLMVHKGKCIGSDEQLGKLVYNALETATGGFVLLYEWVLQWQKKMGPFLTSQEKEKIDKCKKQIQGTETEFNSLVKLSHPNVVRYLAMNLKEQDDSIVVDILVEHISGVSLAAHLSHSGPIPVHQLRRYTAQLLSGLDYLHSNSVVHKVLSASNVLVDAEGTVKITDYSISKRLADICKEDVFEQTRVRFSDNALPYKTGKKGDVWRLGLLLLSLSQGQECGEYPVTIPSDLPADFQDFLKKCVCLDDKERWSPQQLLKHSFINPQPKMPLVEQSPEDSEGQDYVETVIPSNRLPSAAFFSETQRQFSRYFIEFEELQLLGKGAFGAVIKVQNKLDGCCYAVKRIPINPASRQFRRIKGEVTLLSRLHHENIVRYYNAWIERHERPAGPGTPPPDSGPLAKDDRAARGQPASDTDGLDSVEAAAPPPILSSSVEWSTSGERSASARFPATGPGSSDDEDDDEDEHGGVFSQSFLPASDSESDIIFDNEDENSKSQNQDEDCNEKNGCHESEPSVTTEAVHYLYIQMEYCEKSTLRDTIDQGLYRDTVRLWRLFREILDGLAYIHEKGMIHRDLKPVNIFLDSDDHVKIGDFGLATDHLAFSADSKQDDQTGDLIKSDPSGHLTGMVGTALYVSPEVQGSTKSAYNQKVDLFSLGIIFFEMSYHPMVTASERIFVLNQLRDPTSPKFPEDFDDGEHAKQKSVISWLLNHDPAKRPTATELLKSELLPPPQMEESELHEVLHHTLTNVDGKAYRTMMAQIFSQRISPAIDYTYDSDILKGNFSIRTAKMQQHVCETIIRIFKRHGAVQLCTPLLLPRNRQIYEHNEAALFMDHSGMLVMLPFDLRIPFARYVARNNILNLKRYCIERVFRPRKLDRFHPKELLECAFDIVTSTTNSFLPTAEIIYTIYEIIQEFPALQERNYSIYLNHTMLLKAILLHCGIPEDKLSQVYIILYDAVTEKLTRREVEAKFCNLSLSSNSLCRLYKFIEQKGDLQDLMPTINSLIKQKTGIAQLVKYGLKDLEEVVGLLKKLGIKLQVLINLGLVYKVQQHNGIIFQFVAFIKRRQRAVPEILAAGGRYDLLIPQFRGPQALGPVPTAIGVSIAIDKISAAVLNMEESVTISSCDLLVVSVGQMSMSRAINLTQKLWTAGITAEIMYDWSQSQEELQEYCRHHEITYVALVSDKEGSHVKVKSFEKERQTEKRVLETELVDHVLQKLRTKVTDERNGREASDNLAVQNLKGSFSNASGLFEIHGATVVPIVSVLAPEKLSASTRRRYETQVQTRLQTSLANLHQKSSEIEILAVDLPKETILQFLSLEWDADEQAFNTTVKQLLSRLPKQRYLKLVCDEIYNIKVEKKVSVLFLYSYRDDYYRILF
Procedure, shortened: as §3

MAP3K15, MAP3K5, MAP3K6 = test: KINATIV assay; type: cell-based; settings: 1 μM, 90 minutes, BCWM.1 cells
Procedure, shortened: as §3

TLK2 = TLK2 (Homo sapiens (Human), UniProt Q86UE8); test: KINATIV assay; type: cell-based; settings: 1 μM, 90 minutes, BCWM.1 cells
Procedure, shortened: as §3

p70S6Kb = p70S6Kb (Homo sapiens (Human), UniProt Q9UBS0); test: KINATIV assay; type: cell-based; settings: 1 μM, 90 minutes, BCWM.1 cells
Procedure, shortened: as §3

FRAP = FRAP (Homo sapiens (Human), UniProt P42345); test: KINATIV assay; type: cell-based; settings: 1 μM, 90 minutes, BCWM.1 cells
Procedure, shortened: as §3

SNRK = SNRK (Homo sapiens (Human), UniProt Q9NRH2); test: KINATIV assay; type: cell-based; settings: 1 μM, 90 minutes, BCWM.1 cells
Sequence of SNRK (Q9NRH2 whole entry): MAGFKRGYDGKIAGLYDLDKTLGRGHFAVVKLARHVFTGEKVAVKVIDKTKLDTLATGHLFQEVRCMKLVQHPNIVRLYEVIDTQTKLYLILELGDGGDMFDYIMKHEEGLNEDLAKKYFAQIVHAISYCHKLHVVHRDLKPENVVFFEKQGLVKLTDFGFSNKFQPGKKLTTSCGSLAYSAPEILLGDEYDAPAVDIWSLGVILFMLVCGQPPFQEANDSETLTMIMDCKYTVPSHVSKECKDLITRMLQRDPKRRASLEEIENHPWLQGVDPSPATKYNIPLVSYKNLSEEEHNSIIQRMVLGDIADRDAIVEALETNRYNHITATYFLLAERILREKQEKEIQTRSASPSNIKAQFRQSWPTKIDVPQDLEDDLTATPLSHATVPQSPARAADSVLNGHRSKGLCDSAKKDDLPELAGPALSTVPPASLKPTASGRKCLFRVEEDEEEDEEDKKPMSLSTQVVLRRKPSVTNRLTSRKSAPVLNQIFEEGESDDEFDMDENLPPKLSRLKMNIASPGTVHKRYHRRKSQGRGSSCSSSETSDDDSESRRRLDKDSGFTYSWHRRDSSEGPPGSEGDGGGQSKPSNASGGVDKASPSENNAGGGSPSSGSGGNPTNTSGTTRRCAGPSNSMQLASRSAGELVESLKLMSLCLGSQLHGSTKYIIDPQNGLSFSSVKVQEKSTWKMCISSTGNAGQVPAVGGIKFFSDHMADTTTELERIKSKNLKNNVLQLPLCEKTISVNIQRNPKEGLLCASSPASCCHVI
Procedure, shortened: as §3

LYN = LYN (Homo sapiens (Human), UniProt P07948); test: KINATIV assay; type: cell-based; settings: 1 μM, 90 minutes, BCWM.1 cells
Sequence of LYN (P07948 whole entry): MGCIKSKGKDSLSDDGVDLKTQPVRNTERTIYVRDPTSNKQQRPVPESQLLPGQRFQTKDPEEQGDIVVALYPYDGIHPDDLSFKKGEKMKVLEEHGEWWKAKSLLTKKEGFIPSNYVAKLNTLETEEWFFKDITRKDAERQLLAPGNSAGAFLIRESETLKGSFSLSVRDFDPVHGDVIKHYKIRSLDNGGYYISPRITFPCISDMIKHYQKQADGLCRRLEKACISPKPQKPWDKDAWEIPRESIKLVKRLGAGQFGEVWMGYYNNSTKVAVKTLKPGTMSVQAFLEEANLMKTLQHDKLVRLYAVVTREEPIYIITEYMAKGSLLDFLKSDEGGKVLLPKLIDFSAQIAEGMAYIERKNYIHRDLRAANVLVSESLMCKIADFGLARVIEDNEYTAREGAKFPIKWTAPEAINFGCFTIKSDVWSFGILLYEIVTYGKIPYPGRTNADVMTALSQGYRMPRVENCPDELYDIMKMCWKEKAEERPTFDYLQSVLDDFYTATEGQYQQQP
Procedure, shortened: as §3

GSK3B = GSK3B (Homo sapiens (Human), UniProt P49841); test: KINATIV assay; type: cell-based
Procedure, shortened: as §3

NEK6, NEK7 = test: KINATIV assay; type: cell-based; settings: 1 μM, 90 minutes, BCWM.1 cells
Procedure, shortened: as §3

AurB = AurB (Homo sapiens (Human), UniProt Q96GD4); test: KINATIV assay; type: cell-based; settings: 1 μM, 90 minutes, BCWM.1 cells
Procedure, shortened: as §3

MARK4 = MARK4 (Homo sapiens (Human), UniProt Q96L34); test: KINATIV assay; type: cell-based; settings: 1 μM, 90 minutes, BCWM.1 cells
Sequence of MARK4 (Q96L34 whole entry): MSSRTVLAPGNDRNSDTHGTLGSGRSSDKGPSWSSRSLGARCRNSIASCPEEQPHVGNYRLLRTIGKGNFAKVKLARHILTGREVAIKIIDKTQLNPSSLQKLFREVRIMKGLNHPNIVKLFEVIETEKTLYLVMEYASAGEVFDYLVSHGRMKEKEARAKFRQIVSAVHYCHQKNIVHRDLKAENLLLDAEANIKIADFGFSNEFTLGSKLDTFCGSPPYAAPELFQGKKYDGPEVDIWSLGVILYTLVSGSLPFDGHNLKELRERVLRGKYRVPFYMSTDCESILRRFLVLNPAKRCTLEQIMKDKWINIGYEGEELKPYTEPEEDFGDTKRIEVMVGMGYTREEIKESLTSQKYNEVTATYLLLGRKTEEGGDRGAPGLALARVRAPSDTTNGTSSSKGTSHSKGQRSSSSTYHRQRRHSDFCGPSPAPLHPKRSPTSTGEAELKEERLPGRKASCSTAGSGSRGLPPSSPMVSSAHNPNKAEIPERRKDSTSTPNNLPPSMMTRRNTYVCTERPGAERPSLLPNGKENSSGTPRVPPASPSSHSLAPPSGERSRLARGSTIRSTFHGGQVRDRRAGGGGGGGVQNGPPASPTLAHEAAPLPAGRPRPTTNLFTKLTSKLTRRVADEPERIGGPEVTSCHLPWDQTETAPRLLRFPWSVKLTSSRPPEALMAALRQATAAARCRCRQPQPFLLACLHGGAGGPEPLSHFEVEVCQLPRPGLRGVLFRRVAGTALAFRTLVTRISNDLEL
Procedure, shortened: as §3

MAST1, MAST2 = test: KINATIV assay; type: cell-based; settings: 1 μM, 90 minutes, BCWM.1 cells
Procedure, shortened: as §3

ZC2/TNIK = ZC2/TNIK (Homo sapiens (Human), UniProt Q9UKE5); test: KINATIV assay; type: cell-based; settings: 1 μM, 90 minutes, BCWM.1 cells
Procedure, shortened: as §3

LKB1 = LKB1 (Homo sapiens (Human), UniProt Q15831); test: KINATIV assay; type: cell-based; settings: 1 μM, 90 minutes, BCWM.1 cells
Procedure, shortened: as §3

SMG1 = SMG1 (Homo sapiens (Human), UniProt Q96Q15); test: KINATIV assay; type: cell-based; settings: 1 μM, 90 minutes, BCWM.1 cells
Procedure, shortened: as §3

TBK1 = TBK1 (Homo sapiens (Human), UniProt Q9UHD2); test: KINATIV assay; type: cell-based; settings: 1 μM, 90 minutes, BCWM.1 cells
Procedure, shortened: as §3

ILK = ILK (Homo sapiens (Human), UniProt Q13418); test: KINATIV assay; type: cell-based; settings: 1 μM, 90 minutes, BCWM.1 cells
Sequence of ILK (Q13418 whole entry): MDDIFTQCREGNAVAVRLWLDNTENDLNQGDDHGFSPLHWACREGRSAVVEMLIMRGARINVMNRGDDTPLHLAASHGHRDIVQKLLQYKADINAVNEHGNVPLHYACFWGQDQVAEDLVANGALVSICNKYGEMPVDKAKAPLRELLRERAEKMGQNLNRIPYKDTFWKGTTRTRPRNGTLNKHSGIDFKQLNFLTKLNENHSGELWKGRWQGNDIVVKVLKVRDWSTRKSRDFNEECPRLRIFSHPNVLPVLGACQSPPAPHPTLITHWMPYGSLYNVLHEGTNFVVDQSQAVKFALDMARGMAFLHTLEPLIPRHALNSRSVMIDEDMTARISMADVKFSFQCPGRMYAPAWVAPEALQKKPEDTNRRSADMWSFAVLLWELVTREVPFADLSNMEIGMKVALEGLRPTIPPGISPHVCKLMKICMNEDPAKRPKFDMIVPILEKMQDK
Procedure, shortened: as §3

PIK3CB = PIK3CB (Homo sapiens (Human), UniProt P42338); test: KINATIV assay; type: cell-based; settings: 1 μM, 90 minutes, BCWM.1 cells
Procedure, shortened: as §3

ITPK1 = ITPK1 (Homo sapiens (Human), UniProt Q13572); test: KINATIV assay; type: cell-based; settings: 1 μM, 90 minutes, BCWM.1 cells
Procedure, shortened: as §3

MAP2K6 = MAP2K6 (Homo sapiens (Human), UniProt P52564); test: KINATIV assay; type: cell-based; settings: 1 μM, 90 minutes, BCWM.1 cells
Sequence of MAP2K6 (P52564 whole entry): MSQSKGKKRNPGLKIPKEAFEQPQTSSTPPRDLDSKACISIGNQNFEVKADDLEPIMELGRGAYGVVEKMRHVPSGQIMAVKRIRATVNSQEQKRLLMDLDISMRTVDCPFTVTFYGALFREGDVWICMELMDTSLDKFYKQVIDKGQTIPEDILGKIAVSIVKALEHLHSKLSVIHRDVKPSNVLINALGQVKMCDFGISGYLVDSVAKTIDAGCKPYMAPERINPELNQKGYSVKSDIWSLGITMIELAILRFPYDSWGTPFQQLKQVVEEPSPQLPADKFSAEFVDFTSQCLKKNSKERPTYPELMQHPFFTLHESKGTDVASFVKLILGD
Procedure, shortened: as §3

ULK3 = ULK3 (Homo sapiens (Human), UniProt Q6PHR2); test: KINATIV assay; type: cell-based; settings: 1 μM, 90 minutes, BCWM.1 cells
Sequence of ULK3 (Q6PHR2 whole entry): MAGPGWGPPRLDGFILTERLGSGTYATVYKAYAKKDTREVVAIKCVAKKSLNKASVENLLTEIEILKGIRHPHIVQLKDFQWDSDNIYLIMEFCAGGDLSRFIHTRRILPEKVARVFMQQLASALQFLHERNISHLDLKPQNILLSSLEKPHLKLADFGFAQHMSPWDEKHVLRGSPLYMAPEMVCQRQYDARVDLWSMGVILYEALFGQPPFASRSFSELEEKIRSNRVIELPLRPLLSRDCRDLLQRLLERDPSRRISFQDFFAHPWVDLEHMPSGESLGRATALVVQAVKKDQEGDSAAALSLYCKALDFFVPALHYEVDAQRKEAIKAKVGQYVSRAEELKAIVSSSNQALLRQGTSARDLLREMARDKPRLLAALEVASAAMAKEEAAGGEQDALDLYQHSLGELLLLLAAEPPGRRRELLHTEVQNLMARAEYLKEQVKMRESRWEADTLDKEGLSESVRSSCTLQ
Procedure, shortened: as §3

| SMILES | % change of MS signal compared to control sample (PRPK) [%] | % change of MS signal compared to control sample (PCTAIRE2) [%] | % change of MS signal compared to control sample (MAPKAPK3) [%] | % change of MS signal compared to control sample (PCTAIRE1) [%] | % change of MS signal compared to control sample (PRP4) [%] | % change of MS signal compared to control sample (PCTAIRE1, PCTAIRE3) [%] | % change of MS signal compared to control sample (PCTAIRE2, PCTAIRE3) [%] | % change of MS signal compared to control sample (MARK2) [%] | % change of MS signal compared to control sample (JAK1) [%] | % change of MS signal compared to control sample (ROCK1) [%] | % change of MS signal compared to control sample (MARK3, MARK4) [%] | % change of MS signal compared to control sample (FYN, SRC, YES) [%] | % change of MS signal compared to control sample (KHS1) [%] | % change of MS signal compared to control sample (GSK3A) [%] | % change of MS signal compared to control sample (RSK1, RSK2, RSK3 domain1) [%] | % change of MS signal compared to control sample (CDK9) [%] | % change of MS signal compared to control sample (GCN2) | % change of MS signal compared to control sample (MAP3K15, MAP3K5, MAP3K6) [%] | % change of MS signal compared to control sample (TLK2) [%] | % change of MS signal compared to control sample (p70S6Kb) [%] | also measured |
| --- | --- | --- | --- | --- | --- | --- | --- | --- | --- | --- | --- | --- | --- | --- | --- | --- | --- | --- | --- | --- | --- |
| C=CC(=O)N1CCC(CNc2nccc(Nc3ncc(C(=O)Nc4c(C)cccc4C)s3)n2)C1 (racemic) [Example I-8] | 3.7 | 8.5 | 0.5 | 32.9 | −10.7 | 19.8 | 28.8 | 12.1 | −1.9 | 4.4 | 5.8 | 97.9 | −8.4 | −14.2 | −55.6 | −5.2 | −20.3% and −13.6% | 2.2 | 9.4 | −22.7 | % change of MS signal compared to control sample (STLK5): 1.1% and −4.0%; % change of MS signal compared to control sample (CHK1): 15.3% and 24.7%; % change of MS signal compared to control sample (FRAP): −5.2%; % change of MS signal compared to control sample (SNRK): 45.1% and 59.1%; % change of MS signal compared to control sample (LYN): >97% and >90%; % change of MS signal compared to control sample (GSK3B): −10.7%; % change of MS signal compared to control sample (NEK6, NEK7): −11.0%; % change of MS signal compared to control sample (AurB): −14.3%; % change of MS signal compared to control sample (MARK4): −0.4% and 1.6%; % change of MS signal compared to control sample (MAST1, MAST2): −32.5%; % change of MS signal compared to control sample (ZC2/TNIK): 19.0%; % change of MS signal compared to control sample (LKB1): −1.8%; % change of MS signal compared to control sample (SMG1): 23.1%; % change of MS signal compared to control sample (TBK1): −2.9%; % change of MS signal compared to control sample (ILK): 19.4% and 36.6%; % change of MS signal compared to control sample (PIK3CB): −10.1%; % change of MS signal compared to control sample (ITPK1): −16.4% |
| C=CC(=O)N1CCCCC(Nc2nccc(Nc3ncc(C(=O)Nc4c(C)cccc4C)s3)n2)C1 (centres unmarked) [Example I-7] | −3.8 | 9.9 | 0.9 | 38.2 | −4.1 | 14.9 | 27.0 | 7.7 | 7.5 | 6.6 | 20.7 | 98.4 | −5.9 | −11.3 | −58.3 | −37.0 | −13.3% and −6.3% | 4.0 | 7.3 | −42.7 | % change of MS signal compared to control sample (MAP2K6): 5.9% and 2.5%; % change of MS signal compared to control sample (ULK3): 15.5% and 18.4%; % change of MS signal compared to control sample (FRAP): −3.5%; % change of MS signal compared to control sample (SNRK): 40.7% and 58.7%; % change of MS signal compared to control sample (LYN): >97% and >90%; % change of MS signal compared to control sample (GSK3B; GSK3B, 1 μM, 90 minutes, BCWM.1 cells): −1.9%; % change of MS signal compared to control sample (NEK6, NEK7): −8.4%; % change of MS signal compared to control sample (AurB): −6.1%; % change of MS signal compared to control sample (MARK4): 4.9% and 14.1%; % change of MS signal compared to control sample (MAST1, MAST2): −35.0%; % change of MS signal compared to control sample (ZC2/TNIK): −1.5%; % change of MS signal compared to control sample (LKB1): 1.2%; % change of MS signal compared to control sample (SMG1): 21.5%; % change of MS signal compared to control sample (TBK1): −39.7%; % change of MS signal compared to control sample (ILK): 17.1% and 28.2%; % change of MS signal compared to control sample (PIK3CB): −42.6%; % change of MS signal compared to control sample (ITPK1): −17.5% |
